“Also recorded” adds a separate entry of the source. Read-outs that look alike come from different tables or passages of the source.
Tests used:
Estrogen Receptor (ER) [1] = target: T1, Estrogen Receptor (ER) (Homo sapiens, UniProt P03372); test: htSMT of Halo-ER in U2OS cells (fbound, Dfree); format: cell-based; conditions: for change in ER fbound: follow-up of selected compounds
T1 construct: expressed in transfected cells
T1 sequence (P03372 1-595): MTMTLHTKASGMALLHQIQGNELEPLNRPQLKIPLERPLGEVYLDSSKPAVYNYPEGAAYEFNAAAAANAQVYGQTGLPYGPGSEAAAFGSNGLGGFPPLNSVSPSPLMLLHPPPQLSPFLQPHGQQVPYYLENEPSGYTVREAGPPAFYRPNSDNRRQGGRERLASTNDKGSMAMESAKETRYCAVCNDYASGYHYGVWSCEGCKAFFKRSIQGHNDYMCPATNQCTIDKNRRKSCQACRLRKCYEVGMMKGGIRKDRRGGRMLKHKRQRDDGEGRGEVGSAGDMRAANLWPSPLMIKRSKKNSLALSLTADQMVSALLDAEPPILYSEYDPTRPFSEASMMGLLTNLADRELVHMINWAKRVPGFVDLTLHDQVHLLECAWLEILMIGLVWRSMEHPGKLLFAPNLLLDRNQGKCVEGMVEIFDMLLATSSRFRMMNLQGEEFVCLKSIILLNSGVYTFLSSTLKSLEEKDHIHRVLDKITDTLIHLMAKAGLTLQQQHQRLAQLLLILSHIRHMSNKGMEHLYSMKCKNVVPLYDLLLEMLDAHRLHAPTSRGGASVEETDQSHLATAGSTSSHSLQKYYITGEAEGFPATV

[2] = target: T2, glucocorticoid receptor (GR) (Homo sapiens, UniProt P04150); test: htSMT of Halo-GR in U2OS cells; format: cell-based; conditions: 1 μM antagonist, singly or with cognate agonist
T2 construct: Because U2OS cells express GR endogenously; endogenous in cells; host or cells: U2OS, CRISPR/Cas9 knock-in at the endogenous NR3C1 locus
T2 sequence (P04150 1-777): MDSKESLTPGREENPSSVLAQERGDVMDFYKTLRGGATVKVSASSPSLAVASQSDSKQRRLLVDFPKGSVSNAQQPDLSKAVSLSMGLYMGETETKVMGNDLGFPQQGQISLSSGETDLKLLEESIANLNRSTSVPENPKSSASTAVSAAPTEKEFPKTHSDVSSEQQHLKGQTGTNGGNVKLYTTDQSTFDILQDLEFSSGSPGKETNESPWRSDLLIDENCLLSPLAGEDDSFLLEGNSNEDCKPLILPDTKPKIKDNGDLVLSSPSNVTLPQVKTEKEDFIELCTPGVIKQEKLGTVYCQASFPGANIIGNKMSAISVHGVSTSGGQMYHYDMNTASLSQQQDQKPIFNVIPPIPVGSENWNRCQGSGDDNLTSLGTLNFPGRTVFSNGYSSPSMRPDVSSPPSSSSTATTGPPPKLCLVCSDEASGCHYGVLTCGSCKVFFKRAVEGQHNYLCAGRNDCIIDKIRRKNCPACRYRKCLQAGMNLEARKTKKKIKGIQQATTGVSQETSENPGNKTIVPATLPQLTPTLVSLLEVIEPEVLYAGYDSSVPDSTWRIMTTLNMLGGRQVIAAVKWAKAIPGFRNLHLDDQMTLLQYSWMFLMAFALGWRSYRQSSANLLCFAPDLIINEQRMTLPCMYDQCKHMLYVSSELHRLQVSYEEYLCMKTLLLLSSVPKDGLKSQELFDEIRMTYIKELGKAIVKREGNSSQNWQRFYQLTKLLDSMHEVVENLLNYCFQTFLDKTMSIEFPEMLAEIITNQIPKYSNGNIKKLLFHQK
Text: Where appropriate, compounds were serially diluted in an Echo Qualified 384-Well Low Dead Volume Source Microplate (0018544, Beckman Coulter) to generate dose-titration source material.

androgen receptor (AR) = androgen receptor (AR) (Homo sapiens, UniProt P10275)
androgen receptor (AR), sequence (P10275 whole entry): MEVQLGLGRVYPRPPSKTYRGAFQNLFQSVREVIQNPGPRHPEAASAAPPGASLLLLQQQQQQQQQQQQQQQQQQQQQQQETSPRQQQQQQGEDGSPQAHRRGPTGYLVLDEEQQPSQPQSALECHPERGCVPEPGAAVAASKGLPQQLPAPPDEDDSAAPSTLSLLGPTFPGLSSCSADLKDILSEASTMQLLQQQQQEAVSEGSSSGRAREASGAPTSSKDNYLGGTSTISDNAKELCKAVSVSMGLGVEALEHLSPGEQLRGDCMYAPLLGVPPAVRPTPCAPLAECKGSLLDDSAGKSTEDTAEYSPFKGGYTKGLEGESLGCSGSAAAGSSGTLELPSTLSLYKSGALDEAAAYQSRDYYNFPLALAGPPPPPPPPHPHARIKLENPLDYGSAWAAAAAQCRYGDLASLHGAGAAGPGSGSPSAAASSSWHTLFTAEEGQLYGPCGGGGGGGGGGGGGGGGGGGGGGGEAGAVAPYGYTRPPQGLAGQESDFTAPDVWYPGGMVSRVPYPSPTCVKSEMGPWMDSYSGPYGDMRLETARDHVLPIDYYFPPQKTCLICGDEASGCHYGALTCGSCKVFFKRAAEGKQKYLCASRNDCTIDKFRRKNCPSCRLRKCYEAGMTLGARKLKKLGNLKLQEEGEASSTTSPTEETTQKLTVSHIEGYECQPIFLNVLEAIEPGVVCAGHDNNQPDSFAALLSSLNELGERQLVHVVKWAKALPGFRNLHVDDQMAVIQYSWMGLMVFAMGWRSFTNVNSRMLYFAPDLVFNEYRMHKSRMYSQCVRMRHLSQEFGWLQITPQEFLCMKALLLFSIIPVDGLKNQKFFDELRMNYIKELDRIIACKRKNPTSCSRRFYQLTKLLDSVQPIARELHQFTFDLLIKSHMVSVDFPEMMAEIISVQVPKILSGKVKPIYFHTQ

Estrogen Receptor (ER) [3] = target: T1, Estrogen Receptor (ER); test: kinetic SMT (kSMT) of ER after compound addition; format: cell-based; conditions: 100 nM compound
Estrogen Receptor (ER) [4] = target: T1, Estrogen Receptor (ER); test: residence time imaging of ER-Halo (track length); format: cell-based; conditions: versus DMSO, 100 nM HSP90 inhibition
ER = ER (Homo sapiens, UniProt P03372); test: western blot of ER after 24 hours treatment; format: cell-based; conditions: 24 hours prior to lysis; MCF7, T47d, U2OS ER-HaloTag
Method: Cells were grown in the same conditions as described previously. […] Cells are lysed in 200 μL 1× Cell Lysis Buffer (catalogue number 9803, Cell Signaling). Protein lysate concentration is then determined using BCA protein assay kit (Catalog number 23225, Pierce™ BCA Protein Assay Kit) following manufacturer instructions. Capillary Western Immunoassay were performed using Jess Protein Simple following manufacturer's instruction (protein simple, USA). Levels of αER (1:100, RM-9101) were normalized to loading control β-tubulin (1:100, NC0244815 LI-COR 92642213, Thermo Fisher). The peaks were analyzed with the Compass software (Protein Simple, USA).

| change in ER fbound (Estrogen Receptor (ER) [1]) | time at which overall effect on fbound reached a plateau (Estrogen Receptor (ER) [3]) | decrease in total number of long binding events (Estrogen Receptor (ER) [4]) | Compound | other results |
| --- | --- | --- | --- | --- |
|  |  |  | 4-hydroxytamoxifen | change in ER fbound in bioactive screen (Estrogen Receptor (ER) [1]): significantly increased fbound; maximal increase in ER fbound (Estrogen Receptor (ER) [1]): lower maximal increases in fbound |
|  |  |  | CN(C)c1ccc(C(c2ccc(N(C)C)cc2)c2cc([N+](=O)[O-])ccc2Cl)cc1 [AL082D06] | GR chromatin binding (fbound) [2]: decrease in chromatin binding |
|  |  |  | CC(O)c1cc(C(=O)N[C@@H](C)Cn2ccc(-c3ccc(C#N)c(Cl)c3)n2)[nH]n1 (stereo partly drawn) [Darolutamide] | AR fbound / chromatin binding (androgen receptor (AR)): decrease in chromatin binding |
| increase in fbound | plateau after an hour | two | COc1cccc(-c2cc(F)ccc2[C@H]2Cc3nc(N)nc(C)c3C(=O)N2)n1 [HSP990] |  |
|  |  |  | C[C@]12CC[C@@H]3c4ccc(O)cc4C[C@@H](CCCCCCCCC[S+]([O-])CCCC(F)(F)C(F)(F)F)[C@H]3[C@@H]1CC[C@@H]2O (stereo partly drawn) [fulvestrant] | change in ER fbound in bioactive screen (Estrogen Receptor (ER) [1]; 1 μM compound versus DMSO): increase in fbound; also recorded: significantly increased fbound; ER degradation (western blot) (ER): degradation of ER |
| increase in fbound | plateau after an hour | four | CC(C)c1cc(-c2n[nH]c(=O)n2-c2ccc3c(ccn3C)c2)c(O)cc1O [ganetespib] |  |

— patent US20250314869A1, “SYSTEMS AND METHODS FOR HIGH THROUGHPUT SINGLE MOLECULE TRACKING IN LIVING CELLS” (EIKON THERAPEUTICS, INC., priority 2022, published 2025)
